The values that follow come from article PMC5880945, “D-Arg^0-Bradykinin-Arg-Arg, a Latent Vasoactive Bradykinin B2 Receptor Agonist Metabolically Activated by Carboxypeptidases” (Frontiers in Pharmacology, 2018).

“Also recorded” adds a separate entry of the source. Square brackets hold non-standard residues; d marks the D form. Ends that are not written are not given here.

The test system of experiment [1] is GFP-tagged rabbit B2R (B2R-GFP). The experiment is described as follows: B2R-GFP endocytosis and recycling, epifluorescence microscopy, HEK 293 cells. In kind it is cell-based. The note with it: 30 min vs 3 h of stimulation.
In experiment [2] the test system is anesthetized rats. Also on record: method as in 2 sources, one per row (each row's own in cited_ref): ref Jean et al., 2016; Charest-Morin et al., 2017 ||| ref Jean et al., 2016. The note with it: intravenous boluses; ref Jean et al., 2016; Charest-Morin et al., 2017; cited from earlier work.
In experiment [3] the test system is human ACE-mCherry fusion protein. In words: Competition of a fluorogenic ACE substrate by synthetic kinins (recombinant ACE-mCherry). In kind it is biochemical. The note with it: enalaprilat 1 μM; 15 min, 37°C; fluorescence. The protocol:
The source of enzyme was whole HEK 293a cells grown in 24-well plates and transfected as described with a vector coding for the human ACE-mCherry fusion protein, an active enzyme ([Charest-Morin and Marceau, 2016]). The culture medium was removed from cell wells, which were rinsed twice with PBS. The fluorogenic substrate (final concentration 20 μM), and, optionally, a competitor (BK, r-BK, or r-BK-RR in variable concentrations, or the ACE inhibitor enalaprilat 1 μM) were added in 250 μl PBS in each well; the plates were then incubated for 15 min at 37°C. At this point, the well supernatants were transferred in Eppendorf tubes, centrifuged 30 s at 12500 rpm to remove debris and 100 μl of this fluid transferred in wells of 96-well plate (black background) to read the fluorescence (excitation 320 nm, emission 420 nm) using a TECAN Infinite® 200 PRO microplate reader. Results were expressed as the percent of the fluorescence in wells containing ACE-mCherry and the substrate without competitors. Controls included mock-transfected cells and enalaprilat-treated cells.

Experiment [4] has as its system anesthetized rats. In words: In vivo hemodynamics in anesthetized rats pretreated with icatibant or peptidase inhibitors. Also on record: species or system male Sprague-Dawley rats. As to conditions: for Mean arterial blood pressure, basal after pre-treatment / Heart rate, basal after pre-treatment: 15 min after i.v. pretreatment, mean ± SEM, n = 10 icatibant, 9 enalaprilat, 8 Plummer’s, 10 combination; for Mean arterial blood pressure, basal after pre-treatment: untreated control 93.2 ± 3.3 (n = 13), ANOVA N.S.; for Heart rate, basal after pre-treatment: untreated control 352 ± 10 (n = 13), ANOVA P < 0.001, * icatibant, ** others. How it is done: All surgical and experimental procedures were reviewed and approved by the Animal Care and Handling Committee of Laval University, in accordance with the Canadian Council on Animal Care. Experiments were performed on male Sprague-Dawley rats (300–375 g) purchased from Charles River Laboratories (St-Constant, QC, Canada). The rats were housed in a light-controlled (12:12-h light-dark cycle (lights on at 0600)) and temperature-regulated room (22 ± 1°C). Animals had free access to normal chow diet and tap water. They were allowed to acclimate to their environmental conditions for 1 week prior to being studied. At the end of the acclimation period, the rats were anesthetised with sodium pentobarbital (50 mg kg^-1, i.p., supplemented as required) and had one catheter implanted into the right jugular vein [for intravenous (i.v.) injection] and one into the left femoral artery [for direct and continuous measurement of blood pressure and heart rate as previously described ([Jean et al., 2016])]. Experiments started at least 20 min following the end of surgery in anesthetised rats.
The mechanism subserving the cardiovascular responses to random i.v. injections of r-BK and r-BK-RR at the dose of 1.6 μg/kg, was evaluated in rats pretreated with specific antagonists. In these experiments, the rats were separated in four groups depending on the antagonist tested, and the cardiovascular responses to the peptides agonists were compared with those elicited in the untreated control group of rats. In the first group of treated rats, the long acting and selective B2R antagonist, icatibant (Hoe 140) (D-Arg-[Hyp^3, Thi^5, D-Tic^7, Oic^8]) bradykinin ([Hock et al., 1991]; [Wirth et al., 1991]; [Rhaleb et al., 1992]; [Marceau et al., 1994]) was intravenously administered as bolus (75 μg/kg, 0.1 ml) following a 10 min period of baseline measurements of heart rate and blood pressure. Fifteen minutes later, recording changes in blood pressure and heart rate elicited by i.v. injection of peptide vehicle (saline-BSA 0.1%) followed by random injections of r-BK and r-BK-RR, were made as described above. The next peptide was administered once all recorded cardiovascular parameters had returned to baseline after the previous injection. Further experiments were made in a second group of rats pretreated with the ACE inhibitor, enalaprilat. In these experiments, enalaprilat was intravenously administered as bolus ([…], 0.1 ml) 15 min before the i.v. injections of peptide vehicle and both customized peptides, as above. Further experiments were also carried out in rats pretreated with the Plummer’s inhibitor (mercaptomethyl-3-guanidinoethylthiopropanoic acid) a high affinity inhibitor of arginine carboxypeptidases that is an arginine analog ([Plummer and Ryan, 1981]). The inhibitor was intravenously administered as bolus (0.75 mg/kg, 0.1 ml) followed 15 min later by the i.v. injections of saline-BSA 0.1%, and then r-BK and -r-BK-RR (1.6 μg/kg) in random order. A fourth group of rats was pretreated with a combined i.v. injection of enalaprilat (0.1 mg/kg) and the Plummer’s inhibitor (0.75 mg/kg) 15 min before the randomized i.v. injections of both customized peptides, as above. The doses of different inhibitors were based on preliminary experiments and from previous studies performed by us and others ([Ishida et al., 1989]; [Wirth et al., 1991]; [Muto et al., 2003]; [Jean et al., 2016]). At the end of the experiments the rats were euthanized with an overdose of sodium pentobarbital (240 mg/kg, i.v.).
Results are presented as means ± SEM. Radioligand binding data were fitted by non-linear regression to a one-site competition equation using a least-square method (Prism 5.0, GraphPad Software Inc., San Diego, CA, United States) and IC50 values calculated from this procedure. […]

Experiment [5] relates to ACE (two separate catalytic sites). As to conditions: ref Araujo et al., 2000; cited from earlier work. From the text: The source of enzyme was whole HEK 293a cells grown in 24-well plates and transfected as described with a vector coding for the human ACE-mCherry fusion protein, an active enzyme ([Charest-Morin an ...
The target of experiment [6] is T1, myc-tagged rat B2R construction (rat, UniProt P25023 1-396).
T1 construct: bradykinin B2 receptor, rat; also called rat myc-B2R; rat recombinant myc-B2R; source: HEK 293 cells stably expressing the construction, adherent intact cells
T1 sequence (looked up): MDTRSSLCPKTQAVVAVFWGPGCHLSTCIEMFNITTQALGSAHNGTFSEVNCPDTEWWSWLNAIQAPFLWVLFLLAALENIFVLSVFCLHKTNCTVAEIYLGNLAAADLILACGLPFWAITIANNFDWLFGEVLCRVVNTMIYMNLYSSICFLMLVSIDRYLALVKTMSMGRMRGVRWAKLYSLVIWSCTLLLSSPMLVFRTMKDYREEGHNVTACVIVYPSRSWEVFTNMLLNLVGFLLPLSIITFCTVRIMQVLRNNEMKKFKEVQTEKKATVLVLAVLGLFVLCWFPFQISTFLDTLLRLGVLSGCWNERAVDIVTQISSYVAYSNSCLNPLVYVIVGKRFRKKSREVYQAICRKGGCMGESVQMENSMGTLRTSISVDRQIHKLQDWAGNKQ
The experiment is described as follows: radioligand binding; competition of the binding of 3 nM [^3H]BK to adherent intact HEK 293 cells stably expressing myc-tagged rat B2R by unlabeled peptides; 0°C; peptidase inhibitors including captopril and PMSF; one-site competition fit. As to conditions: one partner purified.

Experiment [7] addresses T2, endogenous B2R of the human isolated umbilical vein (human (endogenous in umbilical vein), UniProt P30411 1-391).
T2 sequence (looked up): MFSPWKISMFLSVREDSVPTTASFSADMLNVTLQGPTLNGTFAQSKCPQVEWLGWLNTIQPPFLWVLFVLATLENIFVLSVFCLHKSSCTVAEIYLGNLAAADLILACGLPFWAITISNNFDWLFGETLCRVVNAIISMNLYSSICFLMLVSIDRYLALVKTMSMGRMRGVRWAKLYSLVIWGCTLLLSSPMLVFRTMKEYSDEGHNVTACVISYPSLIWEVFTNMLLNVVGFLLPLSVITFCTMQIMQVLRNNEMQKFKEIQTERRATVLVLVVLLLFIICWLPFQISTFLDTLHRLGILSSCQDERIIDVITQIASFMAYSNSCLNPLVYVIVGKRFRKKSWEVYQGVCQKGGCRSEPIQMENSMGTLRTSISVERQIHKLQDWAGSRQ
The experiment is described as follows: cell-based or functional assay.

With “D-Arg-[Hyp^3, Igl^5, Oic^7, Igl^8]-BK [B-9972, reference compound]”, the “persistence of B2R-GFP endocytosis, in words” value in experiment [1] is recorded as “persistent morphologic response; also recorded: prolonged endocytosis of B2R-GFP”. In the experiment on anesthetized rats [2], the “duration of action vs BK in vivo, in words” value is given as “not remarkably more longer acting than BK in vivo”.
For `C[C@H](N[C@@H](CCc1ccccc1)C(=O)O)C(=O)N1CCC[C@H]1C(=O)O` [Enalaprilat, enalaprilat, reference compound], the “hydrolysis of ACE substrate by ACE-expressing cells treated with inhibitor, in words” value in experiment [3] is “did not catalyze the reaction”. For the same molecule, in the experiment on anesthetized rats [4], the “Mean arterial blood pressure, basal after pre-treatment” value (shortened to “Mean arterial blood pressure, basal”) came out at 89.8 ± 4.1 and the “Heart rate, basal after pre-treatment” value is 412 ± 11^∗∗.
Consider “D-Arg-[Hyp3,Thi5,D-Tic7,Oic8]bradykinin [Icatibant, reference compound]”, for which, in the experiment on anesthetized rats [4], the “Mean arterial blood pressure, basal” value came to 93.7 ± 3.3 and the “Heart rate, basal after pre-treatment” value is on record as 396 ± 10^∗. Also, the “inhibition of hypotensive effects of r-BK and r-BK-RR, in words” value with anesthetized rats [4] (icatibant i.v. pretreatment, r-BK or r-BK-RR 1.6 μg/kg i.v.) is reported as “their effects were inhibited by icatibant”.
For “Abz-Phe-Arg-Lys(Dnp)-Pro-OH [internally quenched fluorogenic ACE substrate]”, the “affinity for the two catalytic sites of ACE, in words” value in experiment [5] was “approximately equal low micromolar affinity”.
For the molecule `N=C(N)NCCSCC(CS)C(=O)O` (stereo not shown) [Plummer’s inhibitor, mercaptomethyl-3-guanidinoethylthiopropanoic acid, reference compound], in the experiment with anesthetized rats [4], the “Mean arterial blood pressure, basal” value is 90.3 ± 3.6 and the “Heart rate, basal after pre-treatment” value is listed as 407 ± 10^∗∗.

B1: D-Arg^0-BK-Arg-Arg (peptide)
peptide: [dR]RPPGFSPFRRR
notes: D-Arg^0, N-terminal extension (a D-residue); bradykinin, whole nonapeptide; Arg-Arg, C-terminal extension; also called r-BK-RR; D-Arg^0-Bradykinin-Arg-Arg; source: synthetic peptide (CanPeptide, Inc., solid-phase, ≥98.3% pure)
The term IC50 denotes the concentration that inhibits the measured activity by half. As for B1, the IC50 in experiment [6] stood at 1050 nM. In addition, in experiment [7], the “contractile EC50, human isolated umbilical vein, with enalaprilat 1 μM (ACE blockade)” value turned out to be 1510 nM and the “contractile EC50, human isolated umbilical vein, with enalaprilat 1 μM + Plummer’s inhibitor 1 μM (ACE blockade)” value was 1760 nM.

B2: D-Arg^0-BK (peptide)
peptide: [dR]RPPGFSPFR
notes: D-Arg^0, N-terminal extension (a D-residue); bradykinin, whole nonapeptide; also called r-BK; D-Arg^0-bradykinin; source: synthetic peptide (CanPeptide, Inc., solid-phase, ≥98.3% pure)
Regarding B2, the IC50 in experiment [6] was 13.3 nM. Moreover, in experiment [7], the “contractile EC50, human isolated umbilical vein, control” value was 62.4 nM; the “contractile EC50, human isolated umbilical vein, with Plummer’s inhibitor 1 μM” value is 68.4 nM; the “contractile EC50, human isolated umbilical vein, with enalaprilat 1 μM” value was 61.6 nM; the “contractile EC50, human isolated umbilical vein, with enalaprilat 1 μM + Plummer’s inhibitor 1 μM” value stood at 45.1 nM.
